From ChEMBL document CHEMBL1909046, “DrugMatrix in vitro pharmacology data”

Columns and labels:
[1] = molecular target: T1, Alpha-1A adrenergic receptor (Rattus norvegicus, UniProt P43140); test: DRUGMATRIX: Alpha-1A adrenergic receptor radioligand binding (ligand: prazosin); format: cell membranes, Wistar, Submaxillary gland, Membrane; settings: Not Active = under 50% inhibition at 10 µM; for Ki: read-out: Ki
T1 sequence (P43140 whole entry): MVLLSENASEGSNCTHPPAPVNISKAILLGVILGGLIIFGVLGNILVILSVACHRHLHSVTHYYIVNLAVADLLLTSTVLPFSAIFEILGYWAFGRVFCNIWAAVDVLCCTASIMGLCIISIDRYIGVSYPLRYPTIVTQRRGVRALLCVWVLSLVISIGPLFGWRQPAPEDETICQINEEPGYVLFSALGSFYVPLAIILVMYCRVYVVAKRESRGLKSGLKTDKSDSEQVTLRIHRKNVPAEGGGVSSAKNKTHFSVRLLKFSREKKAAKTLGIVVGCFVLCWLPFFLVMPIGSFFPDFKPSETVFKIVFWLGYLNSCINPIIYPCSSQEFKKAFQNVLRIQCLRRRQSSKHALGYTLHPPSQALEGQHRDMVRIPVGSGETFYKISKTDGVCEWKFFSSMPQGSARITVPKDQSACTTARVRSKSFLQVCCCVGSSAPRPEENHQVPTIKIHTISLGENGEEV

[2] = molecular target: T2, Alpha-2A adrenergic receptor (Homo sapiens, UniProt P08913); format: cell membranes, Sf9, Membrane; note: in other assays of this panel Not Active means under 50% inhibition at 10 µM
T2 sequence (P08913 whole entry): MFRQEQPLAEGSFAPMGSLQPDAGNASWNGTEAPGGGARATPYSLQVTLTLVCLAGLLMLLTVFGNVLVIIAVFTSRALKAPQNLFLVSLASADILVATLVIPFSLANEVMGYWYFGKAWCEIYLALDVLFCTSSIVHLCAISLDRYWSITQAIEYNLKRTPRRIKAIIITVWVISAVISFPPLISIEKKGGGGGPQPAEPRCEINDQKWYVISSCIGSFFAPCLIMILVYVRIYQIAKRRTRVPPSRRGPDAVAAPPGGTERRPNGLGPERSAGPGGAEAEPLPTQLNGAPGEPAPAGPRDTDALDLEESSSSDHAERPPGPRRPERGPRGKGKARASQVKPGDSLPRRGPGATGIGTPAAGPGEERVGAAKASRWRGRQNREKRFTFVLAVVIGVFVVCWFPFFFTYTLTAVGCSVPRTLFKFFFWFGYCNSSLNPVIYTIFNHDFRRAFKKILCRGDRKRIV

[3] = molecular target: T3, Cholecystokinin receptor type A (Homo sapiens, UniProt P32238); format: cell membranes, Membrane; settings: 1321-n1; note: in other assays of this panel Not Active means under 50% inhibition at 10 µM
T3 sequence (P32238 whole entry): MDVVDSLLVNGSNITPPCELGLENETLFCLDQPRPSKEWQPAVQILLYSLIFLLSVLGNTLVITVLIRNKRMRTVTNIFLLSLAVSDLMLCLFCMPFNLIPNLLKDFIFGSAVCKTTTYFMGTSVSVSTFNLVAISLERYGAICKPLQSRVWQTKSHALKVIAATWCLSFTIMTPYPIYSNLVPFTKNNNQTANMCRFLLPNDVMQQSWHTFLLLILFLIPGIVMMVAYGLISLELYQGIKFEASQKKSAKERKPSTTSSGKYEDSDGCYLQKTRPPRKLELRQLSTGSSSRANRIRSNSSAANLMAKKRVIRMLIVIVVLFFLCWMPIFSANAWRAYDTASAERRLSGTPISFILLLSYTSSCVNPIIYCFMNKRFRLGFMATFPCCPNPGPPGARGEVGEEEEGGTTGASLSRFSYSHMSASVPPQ

[4] = molecular target: 5-hydroxytryptamine receptor 6 (Homo sapiens, UniProt P50406); format: cell membranes, HeLa, Membrane; settings: for Ki: read-out: Ki; for all read-outs here: in other assays of this panel Not Active means under 50% inhibition at 10 µM
[5] = molecular target: 5-hydroxytryptamine receptor 2B (Homo sapiens, UniProt P41595); format: cell membranes, CHO-K1, Membrane; note: in other assays of this panel Not Active means under 50% inhibition at 10 µM
Histamine H2 receptor = Histamine H2 receptor (Homo sapiens, UniProt P25021); format: cell membranes, CHO-K1, Membrane; settings: cho-k1; note: in other assays of this panel Not Active means under 50% inhibition at 10 µM
Histamine H2 receptor, sequence (P25021 whole entry): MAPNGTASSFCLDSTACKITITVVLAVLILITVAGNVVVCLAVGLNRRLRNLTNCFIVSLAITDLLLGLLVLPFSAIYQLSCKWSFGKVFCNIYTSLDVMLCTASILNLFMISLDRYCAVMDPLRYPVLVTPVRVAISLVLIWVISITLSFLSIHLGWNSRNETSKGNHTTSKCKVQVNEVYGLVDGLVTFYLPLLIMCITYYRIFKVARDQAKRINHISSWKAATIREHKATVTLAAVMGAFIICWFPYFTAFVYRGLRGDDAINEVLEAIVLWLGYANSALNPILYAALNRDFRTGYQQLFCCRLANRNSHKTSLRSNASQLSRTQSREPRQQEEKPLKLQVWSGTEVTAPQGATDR

5-hydroxytryptamine receptor 2B, sequence (P41595 whole entry): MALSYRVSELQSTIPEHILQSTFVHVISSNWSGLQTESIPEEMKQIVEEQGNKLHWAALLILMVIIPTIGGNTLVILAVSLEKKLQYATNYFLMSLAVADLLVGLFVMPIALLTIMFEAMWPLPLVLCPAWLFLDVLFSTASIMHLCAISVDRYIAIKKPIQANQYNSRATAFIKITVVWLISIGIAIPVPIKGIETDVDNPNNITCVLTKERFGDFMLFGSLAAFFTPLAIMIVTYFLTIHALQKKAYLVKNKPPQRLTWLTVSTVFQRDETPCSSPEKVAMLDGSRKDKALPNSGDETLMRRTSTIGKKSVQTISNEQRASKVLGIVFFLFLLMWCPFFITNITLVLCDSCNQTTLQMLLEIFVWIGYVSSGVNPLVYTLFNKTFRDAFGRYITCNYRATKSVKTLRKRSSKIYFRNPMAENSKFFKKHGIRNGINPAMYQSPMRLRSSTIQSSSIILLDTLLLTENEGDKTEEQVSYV
5-hydroxytryptamine receptor 6, sequence (P50406 whole entry): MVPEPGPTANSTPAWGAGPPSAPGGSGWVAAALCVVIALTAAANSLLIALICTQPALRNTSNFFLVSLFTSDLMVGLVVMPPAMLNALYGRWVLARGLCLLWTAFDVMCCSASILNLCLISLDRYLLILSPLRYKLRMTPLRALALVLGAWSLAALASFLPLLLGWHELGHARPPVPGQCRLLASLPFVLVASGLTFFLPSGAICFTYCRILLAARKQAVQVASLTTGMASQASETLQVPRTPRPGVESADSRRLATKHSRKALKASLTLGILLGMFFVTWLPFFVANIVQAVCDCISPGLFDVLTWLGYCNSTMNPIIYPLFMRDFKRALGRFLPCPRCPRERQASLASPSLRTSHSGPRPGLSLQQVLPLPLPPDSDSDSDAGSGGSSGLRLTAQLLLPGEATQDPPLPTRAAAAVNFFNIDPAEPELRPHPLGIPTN

Compound	IC50 [1]	IC50 ([2]; sf9)	IC50 [3]	IC50 ([4]; hela)	IC50 ([5]; cho-k1)	IC50 (Histamine H2 receptor)	IC50 ([2]; read-out: IC50) [nM]	Ki ([2]; read-out: Ki) [nM]	Ki ([5]; cho-k1)	IC50 ([1]; read-out: IC50) [nM]	Ki [1] [nM]	IC50 ([4]; read-out: IC50) [nM]	Ki [4] [nM]	IC50 ([5]; read-out: IC50) [nM]	Ki ([5]; read-out: Ki) [nM]
COc1ccccc1OCC(O)COC(N)=O (stereo not drawn) [METHOCARBAMOL]	Not Active	Not Active	Not Active	Not Active	Not Active	Not Active	–	–	–	–	–	–	–	–	–
CO[C@@]1(NC(=O)CSCC#N)C(=O)N2C(C(=O)O)=C(CSc3nnnn3C)CS[C@@H]21 [CEFMETAZOLE]	Not Active	Not Active	Not Active	Not Active	Not Active	Not Active	–	–	–	–	–	–	–	–	–
C=C(CC)C(=O)c1ccc(OCC(=O)O)c(Cl)c1Cl [ETHACRYNIC ACID]	Not Active	Not Active	Not Active	Not Active	Not Active	Not Active	–	–	–	–	–	–	–	–	–
Oc1ccccc1O [CATECHOL]	Not Active	Not Active	Not Active	Not Active	Not Active	Not Active	–	–	–	–	–	–	–	–	–
CC(C)(CO)C(O)C(=O)NCCCO (stereo not drawn) [PANTHENOL]	Not Active	Not Active	Not Active	Not Active	Not Active	Not Active	–	–	–	–	–	–	–	–	–
NC(=O)N1c2ccccc2C=Cc2ccccc21 [CARBAMAZEPINE]	Not Active	Not Active	Not Active	Not Active	Not Active	Not Active	–	–	–	–	–	–	–	–	–
CN(Cc1cnc2nc(N)nc(N)c2n1)c1ccc(C(=O)N[C@@H](CCC(=O)O)C(=O)O)cc1 [METHOTREXATE]	Not Active	Not Active	Not Active	Not Active	Not Active	Not Active	–	–	–	–	–	–	–	–	–
O=P1(N(CCCl)CCCl)NCCCO1 (stereo not drawn) [CYCLOPHOSPHAMIDE ANHYDROUS]	Not Active	Not Active	Not Active	Not Active	Not Active	Not Active	–	–	–	–	–	–	–	–	–
C[C@]12CCC(=O)C=C1CC[C@@H]1[C@@H]2[C@@H](O)C[C@@]2(C)[C@H]1CC[C@]2(O)C(=O)CO [HYDROCORTISONE]	Not Active	Not Active	Not Active	Not Active	Not Active	Not Active	–	–	–	–	–	–	–	–	–
Cc1cccc(Nc2ccccc2C(=O)O)c1C [MEFENAMIC ACID]	Not Active	Not Active	Not Active	Not Active	Not Active	Not Active	–	–	–	–	–	–	–	–	–
CCn1cc(C(=O)O)c(=O)c2cc(F)c(N3CCNCC3)nc21 [ENOXACIN]	Not Active	Not Active	Not Active	Not Active	Not Active	Not Active	–	–	–	–	–	–	–	–	–
Cc1c(N(C)CS(=O)(=O)[O-])c(=O)n(-c2ccccc2)n1C.[Na+] [DIPYRONE SODIUM]	Not Active	Not Active	Not Active	Not Active	Not Active	Not Active	–	–	–	–	–	–	–	–	–
C#C[C@]1(O)CC[C@H]2[C@@H]3CCC4=Cc5oncc5C[C@]4(C)[C@H]3CC[C@@]21C [DANAZOL]	Not Active	–	Not Active	Not Active	Not Active	Not Active	18300	6870	–	–	–	–	–	–	–
CC(=O)O[C@]1(C(C)=O)CC[C@H]2[C@@H]3C=C(C)C4=CC(=O)CC[C@]4(C)[C@H]3CC[C@@]21C [MEGESTROL ACETATE]	Not Active	Not Active	Not Active	Not Active	Not Active	Not Active	–	–	–	–	–	–	–	–	–
CCOC(=O)n1ccn(C)c1=S [CARBIMAZOLE]	Not Active	Not Active	Not Active	Not Active	Not Active	Not Active	–	–	–	–	–	–	–	–	–
CN1C(=O)CN=C(c2ccccc2)c2cc(Cl)ccc21 [DIAZEPAM]	Not Active	Not Active	Not Active	Not Active	Not Active	Not Active	–	–	–	–	–	–	–	–	–
NC[C@H]1O[C@H](O[C@H]2[C@H](O)[C@@H](O[C@H]3O[C@H](CO)[C@@H](O)[C@H](N)[C@H]3O)[C@H](N)C[C@@H]2N)[C@H](O)[C@@H](O)[C@@H]1O [KANAMYCIN]	Not Active	Not Active	Not Active	Not Active	Not Active	Not Active	–	–	–	–	–	–	–	–	–
COc1cc(CNC(=O)CCCC/C=C/C(C)C)ccc1O [CAPSAICIN]	Not Active	Not Active	Not Active	Not Active	Not Active	Not Active	–	–	–	–	–	–	–	–	–
C[C@H](C(=O)O)c1cccc(C(=O)c2ccccc2)c1 [DEXKETOPROFEN]	Not Active	Not Active	Not Active	Not Active	Not Active	Not Active	–	–	–	–	–	–	–	–	–
NC[C@@H]1O[C@H](O[C@H]2[C@@H](O)[C@H](O[C@@H]3[C@@H](O)[C@H](N)C[C@H](N)[C@H]3O[C@H]3O[C@H](CN)[C@@H](O)[C@H](O)[C@H]3N)O[C@@H]2CO)[C@H](N)[C@@H](O)[C@@H]1O [FRAMYCETIN]	Not Active	Not Active	Not Active	Not Active	–	Not Active	–	–	Not Active	–	–	–	–	–	–
C[C@]12C/C(=C/O)C(=O)C[C@@H]1CC[C@@H]1[C@@H]2CC[C@@]2(C)[C@H]1CC[C@]2(C)O [OXYMETHOLONE]	Not Active	Not Active	Not Active	Not Active	Not Active	Not Active	–	–	–	–	–	–	–	–	–
C[C@@H]1CC[C@H]2[C@@H](C)C(=O)O[C@@H]3O[C@@]4(C)CC[C@@H]1[C@]32OO4 [ARTEMISININ]	Not Active	Not Active	Not Active	Not Active	Not Active	Not Active	–	–	–	–	–	–	–	–	–
CCOC(=O)[C@H](CCc1ccccc1)N[C@@H](C)C(=O)N1Cc2ccccc2C[C@H]1C(=O)O	Not Active	Not Active	Not Active	Not Active	Not Active	Not Active	–	–	–	–	–	–	–	–	–
C=C1/C(=C\C=C2/CCC[C@]3(C)[C@@H]([C@H](C)CCCC(C)C)CC[C@@H]23)C[C@@H](O)C[C@@H]1O [ALFACALCIDOL]	Not Active	Not Active	Not Active	Not Active	Not Active	Not Active	–	–	–	–	–	–	–	–	–
CCCCC1C(=O)N(c2ccccc2)N(c2ccccc2)C1=O [PHENYLBUTAZONE]	Not Active	Not Active	Not Active	Not Active	Not Active	Not Active	–	–	–	–	–	–	–	–	–
Cc1cn[nH]c1 [FOMEPIZOLE]	Not Active	Not Active	Not Active	Not Active	Not Active	Not Active	–	–	–	–	–	–	–	–	–
CN1C[C@H](C(=O)N[C@]2(C)O[C@@]3(O)[C@@H]4CCCN4C(=O)[C@H](Cc4ccccc4)N3C2=O)C[C@@H]2c3cccc4[nH]cc(c34)C[C@H]21 [DIHYDROERGOTAMINE]	–	–	Not Active	–	–	Not Active	–	–	–	5.03	2.03	3.2	1.49	6.8	4.33
N=C(N)N/N=C/c1c(Cl)cccc1Cl [GUANABENZ]	–	–	Not Active	Not Active	–	Not Active	–	–	–	–	–	–	–	97	62
CC(C)C[C@H]1C(=O)N2CCC[C@H]2[C@]2(O)O[C@](NC(=O)[C@@H]3C=C4c5cccc6[nH]c(Br)c(c56)C[C@H]4N(C)C3)(C(C)C)C(=O)N12 [BROMOCRIPTINE]	–	–	Not Active	–	–	Not Active	–	–	–	6.96	2.82	22	10	8.32	5.29
